Test results as given in patent US20090240070A1, “WHITENING DERMATOLOGICAL PREPARATIONS” (SHOWA DENKO K.K., priority 2006, published 2009).

Columns and labels:
[1] = 0.5% by mass solution, 0.1 ml on minipig skin, 24 hours, 37° C.; HPLC
Procedure: The above test articles, each 0.5% by mass, were dissolved separately in Dulbecco's PBS (−) containing 10% bovine serum albumin to give test article solutions.
2-cm square skin pieces of minipig (Charles River Laboratories Inc. (United States of America)) were placed in the Netwell (manufactured by Corning Incorporated), and assay rings (Teflon® rings with a center opening) on which a silicon sealant had been applied were pressed and fixed to the epidermis of the skin. Subsequently, 2 ml of a skin culture medium (TOYOBO CO., LTD.) was added to a multiwell plate, and the Netwell was set such that skin lower portions would be soaked. Each of the test article solutions, 0.1 ml, was slowly poured into the opening of assay ring. When no leakage was confirmed, the Netwell was sealed with multiplate seals and were allowed to stand in an incubator at 37° C. and 5% carbon dioxide. […]
The test articles in the tissue extracts were determined by HPLC.
The protein in the tissue extracts was determined by the Lowry method.
400 μl of the reagent 4 was added to a sample tube containing 20 μl of the tissue extract or the standard sample solution, followed by mixing. […] The absorbance at 750 nm was measured with a spectrophotometer, and the protein concentration in the tissue extract was determined using a calibration curve obtained with the standard sample.

[2] = test system: culture skin model (MEL-300) containing melanin cells; conditions: for Amount of melanin synthesized (% relative to the control): 0.5% by mass test article solution, 0.1 ml, 11 days of incubation, control = 100%; for inhibition of melanin synthesis compared with tranexamic acid (in words): conclusion from Table 4
Procedure: The above test articles, each 0.5% by mass, were dissolved separately in sterilized water containing 10% bovine serum albumin and 1% DMSO to give test article solutions.
The skin model was cultured for 11 days using the supplied culture medium LLMM. Each article was tested two times. The culture medium was changed every other day during the incubation.
After 11 days of incubation, the skin model was washed and was measured for the cell survival rate by colorimetry (570 nm) with the Alamar Blue reagent (manufactured by Molecular Probe). Thereafter, the melanin synthesized in the skin model was determined in the following manner.
The skin model was soaked overnight in a liquid which consisted of 0.2 ml of a 10 mM tris buffer solution (pH 6.8) containing 1% SDS and 0.05 mM EDTA, and 0.02 ml of 5 mg/ml Proteinase K. On the next day, 0.02 ml of 5 mg/ml Proteinase K was added, followed by heating at 45° C. for 4 hours. Consequently, the skin model was dissolved. The lysate was made alkaline with 0.025 ml of a 500 mM sodium carbonate solution, and was combined with 5 μl of 30% hydrogen peroxide, followed by heating at 80° C. for 30 minutes to perform reaction. To prepare a standard sample solution, 0.24 ml of a melanin solution of known concentration was combined with 0.025 ml of a 500 mM sodium carbonate solution and 5 μl of 30% hydrogen peroxide, followed by heating at 80° C. for 30 minutes to perform reaction.
The standard sample solution and the lysate obtained were each cooled and extracted with 0.1 ml of chloroform/methanol (2/1). The aqueous phase was measured for the absorbance at 405 nm, and the melanin synthesized was determined using a calibration curve obtained with the standard sample.

Compound	Determined value, amount of test article in skin tissue extract [1]	Amount of melanin synthesized (% relative to the control) [2]	inhibition of melanin synthesis compared with tranexamic acid (in words) [2]
NC[C@H]1CC[C@H](C(=O)O)CC1 [a, Tranexamic acid, reference compound]	0.034 μmol/mg skin protein	99%	
Cc1c(OC(=O)[C@H]2CC[C@H](CN)CC2)cc2c(c1C)OC(C)(CCCC(C)CCCC(C)CCCC(C)C)CC2.Cl (mixture of isomers) [c, dl-γ-Tocopherol tranexamate hydrochloride]		44%	inhibit the melanin synthesis more effectively than tranexamic acid
Cc1c(C)c2c(c(C)c1OC(=O)[C@H]1CC[C@H](CN)CC1)CCC(C)(CCCC(C)CCCC(C)CCCC(C)C)O2.Cl (mixture of isomers) [b, dl-α-Tocopherol tranexamate hydrochloride]		60%	inhibit the melanin synthesis more effectively than tranexamic acid
